Test results as given in patent US20060198879A1, “Patch material for ionic medicine administration” (Tokuyama Corporation, priority 2003, published 2006).

Assays:
[1] = Amount of medicine permeated in living body skin system; type: in vitro ADME, miniature pig (Yucatane Micropig); conditions: 10 mmol/l, miniature pig back skin
Method: (§1) An aqueous solution containing 10% by mass of a polyvinyl alcohol (NH-20 produced by The Nippon Synthetic Chemical Industry Co., Ltd.) was coated on a filter paper (a chemical analysis filter paper 5C produced by Advantec). The amount of the solution coated was such that the amount of the polyvinyl alcohol after solvent removal was 2 mg/cm^2. Then, the filter paper was allowed to stand at room temperature for 24 hours or more to vaporize the water, whereby was obtained a virtual skin. […] An aqueous solution containing a given concentration of a medicine was filled in a medicine solution chamber 22; and an aqueous solution containing […] by mass of sodium chloride was filled in a virtual skin chamber 23. Then, a permeation test was conducted at 25° C. for a given period of time with the inside of the medicine solution chamber 22 and the inside of the virtual skin chamber 23 being stirred. Right after the completion of the test, the solution inside the virtual skin chamber 23 was withdrawn and used as a sample for measurement. The amount of medicine in the sample was determined using liquid chromatography.
(5) Amount of Medicine Permeated in Living Body Skin System
The amount of the medicine permeated was measured in the same manner as in the virtual skin system, by replacing the virtual skin (a filter paper coated with a polyvinyl alcohol) with a living body skin, i.e. the back skin of miniature pig (Yucatane Micropig, 5 month-old, female).

[2] = Amount of medicine permeated in virtual skin system; type: in vitro ADME; conditions: 10 mmol/l, 25° C., no voltage
Method: (4) Amount of Medicine Permeated in Virtial Skin System
as §1

[3] = sodium ascorbate, duration of permeation 3 hr
[4] = magnesium salt of ascorbic acid-phosphoric acid ester, duration of permeation 1 hr
[5] = magnesium salt of ascorbic acid-phosphoric acid ester, duration of permeation 2 hr
[6] = magnesium salt of ascorbic acid-phosphoric acid ester, duration of permeation 3 hr

In the case of `O=C1O[C@H]([C@@H](O)CO)C([O-])=C1O.[Na+]` [compound 8, sodium ascorbate], the Amount of permeation ([1]; sodium ascorbate, duration of permeation 1 hr) is reported as 0.003 μmol/cm^2, the Amount of permeation ([1]; sodium ascorbate, duration of permeation 2 hr) is reported as 0.005 μmol/cm^2 and the Amount of permeation [1, 3] is reported as 0.007 μmol/cm^2.
For `O=C1O[C@H]([C@@H](O)CO)C([O-])=C1O.[Na+]` [Comparative Example 4, sodium ascorbate], the Amount of permeation [2, 3] was 5.2 μmol/cm^2.
In the case of `Cl.Cl.NCCc1c[nH]cn1` [compound 6, histamine dihydrochloride], the Amount of permeation ([2]; histamine dihydrochloride, duration of permeation 3 hr) is reported as 2.5 μmol/cm^2.
With `O=C1O[C@H]([C@@H](O)CO)C([O-])=C1OP(=O)([O-])[O-].O=C1O[C@H]([C@@H](O)CO)C([O-])=C1OP(=O)([O-])[O-].[Mg+2].[Mg+2].[Mg+2]` [Comparative Example 2, magnesium salt of ascorbic acid-phosphoric acid ester] the Amount of permeation [2, 4] was 0.6 μmol/cm^2, the Amount of permeation [2, 5] was 1.3 μmol/cm^2 and the Amount of permeation [2, 6] was 2.0 μmol/cm^2.
Work on `O=C1O[C@H]([C@@H](O)CO)C([O-])=C1OP(=O)([O-])[O-].O=C1O[C@H]([C@@H](O)CO)C([O-])=C1OP(=O)([O-])[O-].[Mg+2].[Mg+2].[Mg+2]` [Comparative Example 9, magnesium salt of ascorbic acid-phosphoric acid ester] yielded an Amount of permeation [1, 4] of 0.010 μmol/cm^2, an Amount of permeation [1, 5] of 0.013 μmol/cm^2 and an Amount of permeation [1, 6] of 0.015 μmol/cm^2.
